System: Mycobacterium tuberculosis H37Rv growth inhibition, no glycerol
Test: Confirmatory growth inhibition assay, Mycobacterium tuberculosis H37Rv, absence of glycerol (AID 449764);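 further: growth read after 7 days of incubation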
Conditions: for IC90: measured here: IC90 growth inhibition

SMILES | IC50 | IC90
CC(C)(C)OC(=O)NCCCCCc1nnc(SCc2ccc(F)cc2)o1 | 75 µM | > 100 µM
Cc1ccc(NC(=O)COC(=O)CCc2c[nH]c3ccccc23)cc1[N+](=O)[O-] | 2.29 µM | 6.16 µM
Cc1ccnc(Sc2ccc([N+](=O)[O-])cc2[N+](=O)[O-])n1 | 19.8 µM | 29.7 µM
CNC(CC(C)C)C(=O)NC1C(=O)NC(CC(N)=O)C(=O)NC2C(=O)NC3C(=O)NC(C(=O)NC(C(=O)O)c4cc(O)cc(O)c4-c4cc3ccc4O)C(O)c3ccc(c(Cl)c3)Oc3cc2cc(c3OC2OC(CO)C(O)C(O)C2OC2C[C@](C)(N)C(O)C(C)O2)Oc2ccc(cc2Cl)C1O (stereo partly specified) | 4.52 µM | 16.9 µM
COc1ccc(CNC(=O)c2c(N)n(CCCN3CCOCC3)c3nc4ccccc4nc23)cc1 | 92.4 µM | > 100 µM
C=CCn1c(O)c(N=Nc2ccccc2O)c2ccccc21 | 16.4 µM | 22.4 µM
S=C(Nc1ccc(Cl)cc1)Nc1cccc2cnccc12 | 5.63 µM | 5.92 µM
O=C(O)c1ccc(N2C(=O)/C(=C/c3ccc(-c4ccc([N+](=O)[O-])cc4)o3)C=C2c2ccccc2)cc1 | 49.8 µM | > 100 µM
Cc1cc(C)n(-c2cc(C(C)(C)C)nc3c(-c4ccccc4)cnn23)n1 | 36.1 µM | 47.3 µM
O=C(Nc1nc2ccc(SC(F)F)cc2s1)c1ccc(NS(=O)(=O)c2ccc(F)c(F)c2)cc1 | 11.9 µM | 18.9 µM
CN1CCN(c2ccc(S(=O)(=O)N3CCCCC3)cc2NC(=O)/C=C/c2ccc(Cl)c([N+](=O)[O-])c2)CC1 | 34.9 µM | 47.6 µM
NC(=O)c1cccc(-c2cc(Nc3ccc(OC(F)(F)F)cc3)ncn2)c1 | 24.5 µM | > 25 µM
Cc1ccc(S(=O)(=O)NNC(=O)c2cc([N+](=O)[O-])c(C)c([N+](=O)[O-])c2)cc1 | 10.5 µM | 13.8 µM
CCOC(=O)c1ccc(Oc2nc(NC(C)(C)C)nc(N(C)C)n2)cc1 | 58.1 µM | > 100 µM
COc1ccc(-c2ccc(-c3noc(C(C)C)n3)c(OC)n2)cc1 | 40.3 µM | 54.6 µM
Oc1ccc2ccccc2c1C1Nc2cccc3cccc(c23)N1 | – | > 100 µM
CN=c1scc(-c2ccccc2Br)n1/N=C/c1ccc[nH]1 | 88.3 µM | 92.2 µM
CCCc1cc(C(N)=S)ccn1 | 17.1 µM | > 100 µM
CCC1(c2ccccc2)ON(c2c(Br)cccc2Br)C1=O (stereo unspecified) | 40.2 µM | 77.3 µM
O=C(c1cccc(-c2ccco2)c1)N1CCCC(N2CCN(c3ccc(F)cc3)CC2)C1 (stereo unspecified) | 74.1 µM | 95 µM
COc1ccc(-c2nnc(SCC(=O)N3CCc4ccccc4C3)o2)cc1 | 30.6 µM | 45.3 µM
COc1ccc(CNc2ncnc3c2[nH]c2cc(OC)c(OC)cc23)cc1 | 80.7 µM | 89.5 µM

SMILES | IC50 | IC90
CCOC(=O)Cn1c(-c2ccccc2)ccc(C#N)c1=O | 10.4 µM | > 50 µM
Clc1ccc(CCC(Cn2ccnc2)Sc2c(Cl)cccc2Cl)cc1 (stereo unspecified) | 11.8 µM | 13.3 µM
CCOC(=O)C1=NOC(CNc2ncc(C(F)(F)F)cc2Cl)C1 (stereo unspecified) | 11.3 µM | 14.4 µM
NC(N)=Nc1nc(-c2ccccc2)c2ccccc2n1 | 90.1 µM | > 100 µM
C=C[C@]1(C)C[C@@H](OC(=O)CSCCN(CC)CC)[C@]2(C)C(C)CC[C@]3(CCC(=O)[C@H]32)[C@@H](C)[C@@H]1O (stereo partly specified) | 5.69 µM | 8.16 µM
CCC(=O)c1ccc(OCC(=O)OCC(=O)c2cc(C)n(C3CC3)c2C)cc1 | 19.2 µM | 40.7 µM
CC(C)C[C@H](NC(=O)c1nc[nH]c1C(=O)NC1CCN(C(=O)OC(C)(C)C)CC1)C(=O)OCc1ccccc1 | 21.8 µM | 29.6 µM
COc1nn(-c2ccccc2)c(=O)c(Cl)c1Cl | 10.3 µM | 13.6 µM
CN(C(=O)COC(=O)c1sc2ccccc2c1Cl)C1CCCCC1 | 9.63 µM | 14.2 µM
CCN1/C(=C/C=C/c2oc3ccc(-c4ccccc4)cc3[n+]2CC)Oc2ccc(-c3ccccc3)cc21 | 5.81 µM | 6.37 µM
Cc1cc(O)c2c(c1)C(=O)c1cc(O)cc(O)c1C2=O | 89 µM | > 100 µM
COC(=O)c1ccc(NC(=S)NC(=O)C2CCC2)cc1 | 43.6 µM | > 100 µM
CNC[C@H](Cc1cccc2ccccc12)NC[C@H](CCSC)NCC1CCC(C(C)(C)C)CC1 (stereo partly specified) | 42.6 µM | 47.1 µM
O=C(c1ccc(Cl)cc1)N1N=C(c2ccccn2)CC1(O)C(F)(F)F (stereo unspecified) | 25.7 µM | > 100 µM
COC(=O)CC(=O)N1CCN(c2ccc(Cl)c(Cl)c2)CC1 | 44.4 µM | 74.8 µM
Brc1ccc2c(c1)C(OC1CN3CCC1CC3)c1ccccc1CS2 (stereo unspecified) | 26.3 µM | 36.4 µM
CCOC(=O)c1nn(-c2ccc(C)c(C)c2)cc1O | 99.8 µM | > 100 µM
CCCOc1ccc(C(=O)NC(=S)NCc2cccnc2)cc1 | 35.1 µM | 45.7 µM
Cc1ccc(-c2nc3c(c(=O)c4ccccc4n3C)c(=O)n2Cc2ccco2)cc1 | 25.1 µM | 40.2 µM
O=C(OCC(=O)N1CCN(c2ccccc2)CC1)c1cnc(Cl)c(Cl)c1 | 27 µM | 58.1 µM
O=C(CSc1ncnc2nc[nH]c12)c1ccc(Cl)cc1 | 19.1 µM | 25.4 µM
CC1CCCN(Cc2c(O)ccc3c(=O)c(-c4nc5ccccc5s4)c(N)oc23)C1 (stereo unspecified) | 11.7 µM | 21 µM

SMILES | IC50 | IC90
Oc1ccc(CN2CCc3ccccc3C2)c2cccnc12 | 72.7 µM | > 100 µM
C=CCC1(CC=C)CCCN1C(=O)c1cc(COc2ccc(-n3cncn3)cc2)on1 | 47.3 µM | 57.4 µM
Cc1ccc2cc(C)c(N3CCN(c4ccccn4)CC3)nc2c1 | 43.1 µM | 46.7 µM
c1ccc2c(C3=NNC(=NC4CCCCC4)SC3)c[nH]c2c1 | 37.7 µM | 45.4 µM
Cc1nnc(-c2ccccc2)c(=O)n1/N=C/c1c(O)ccc2ccccc12 | 22.1 µM | 24.7 µM
COc1cccc(-n2nnc3c(=O)n(CC(=O)N4CCC(Cc5ccccc5)CC4)cnc32)c1 | 51.2 µM | > 100 µM
CC(=O)C1=C(C)NC(SCC(=O)c2ccc(F)cc2)=C(C#N)C1c1ccco1 (stereo unspecified) | 32.7 µM | 49.8 µM
CCCCN(CCCC)CCC(O)c1cc2c(Cl)cc(Cl)cc2c2cc(C(F)(F)F)ccc12 (stereo unspecified) | 17.6 µM | 23.4 µM
CN1C(=O)/C(=C/c2ccccc2Cl)Sc2ccc(C(=O)NCc3cccnc3)cc21 | 50.6 µM | 89.8 µM
Cc1ccc(NC(=O)COc2ccccc2CNC(C)(C)CC(C)(C)C)cc1 | 24.6 µM | 36.2 µM
c1ccc(-c2nc3c(ccc4ccccc43)[nH]2)nc1 | 31.4 µM | 68.5 µM
COC(=O)C(C)Oc1ccc(Cc2ncc(C(F)(F)F)cc2Cl)cc1 (stereo unspecified) | 3.43 µM | 5.97 µM
COc1cccc(N2CCN(c3ncnc4c3[nH]c3ccccc34)CC2C)c1 (stereo unspecified) | 27.1 µM | 42.5 µM
CC(c1ccccc1)N1CCN(C(=O)CCl)CC1 (stereo unspecified) | 2.75 µM | 4.33 µM
CCc1c(C)sc(NC(=S)N2CCN(CC)CC2)c1C(=O)OC | 13.3 µM | > 25 µM
c1ccc(CN2CCN(c3nc(NCc4ccco4)c4ccccc4n3)CC2)cc1 | 17.2 µM | 22.6 µM
COc1cc(OC)cc(-c2cc3nc(C)c(CCC(=O)NC(C)CCc4ccco4)c(C)n3n2)c1 (stereo unspecified) | 53.2 µM | 90.5 µM
CCOC(=O)CSc1ncc(OC)c(Sc2ccc(OC)cc2)n1 | 18.1 µM | 54.3 µM
Cc1ccc(C(=O)c2oc3ccc(Cl)cc3c2NC(=O)CN2CCN(C)CC2)cc1 | 14.9 µM | 19.6 µM
Cc1nc(N)nc(N)c1CCCc1ccc(Cl)c(Cl)c1 | 87.4 µM | > 100 µM
COc1cccc(COC(=O)c2ccc3c(=O)n4c(nc3c2)CCC4)c1OC | 28.2 µM | 59 µM
O=S1(=O)N(CCN2CC=C(c3c[nH]c4cc(F)ccc34)CC2)c2cccc3c2N1CCC3 | 11.2 µM | 12.3 µM

SMILES | IC50 | IC90
c1ccc2nc(-c3ccc(-n4ccnc4)cc3)ccc2c1 | 31 µM | 42.5 µM
O=C(c1ccccc1)C1CN(Cc2ccccc2)CCC1(O)c1ccccc1 (stereo unspecified) | 16.3 µM | 21.8 µM
CC1(C)Cc2c(cnn2-c2ccccc2)-c2c1c1ccccc1n2CC(O)CCl (stereo unspecified) | 95.4 µM | > 100 µM
O=C(CN1CCN(c2ccccc2O)CC1)Nc1ccccc1C(=O)NCCc1ccccc1 | 72.7 µM | > 100 µM
C=CCc1cc(C)ccc1OCCCC(C(=O)OCC)C(=O)OCC | 28.1 µM | 52.1 µM
Cc1cc(C)n(C(=O)c2ccc([N+](=O)[O-])cc2[N+](=O)[O-])n1 | 8.89 µM | 12.3 µM
COC(=O)/C(=C1/Oc2cc(C)oc(=O)c2S1)C(F)(F)F | 26 µM | > 100 µM
COC(=O)Cn1nc(-c2ccccc2)c2cc(Cl)ccc21 | 22 µM | > 100 µM
O=C(Nc1ccc(OC(F)(F)F)cc1)c1ccc2c(c1)no[n+]2[O-] | 0.24 µM | 0.32 µM
Nc1nnnn1/N=C/C(Br)=C/c1ccccc1 | 5.6 µM | 10.9 µM
Cn1c(-c2c(N)n(CCc3ccccc3)c3nc4ccccc4nc23)nc2ccccc21 | 17.9 µM | > 100 µM
CC(C)(C)c1ccc(C(=O)NC(=S)NNC(=O)COc2ccccc2)cc1 | 28.8 µM | 42.9 µM
Cn1c(CNc2nc(-c3ccccc3)cs2)nnc1SCC(=O)OC1CCCCC1 | 24 µM | 27.3 µM
CCN(CCNCC(O)COc1ccccc1C(C)C)c1cccc(C)c1 (stereo unspecified) | 22.8 µM | 26 µM
CN(C)c1ccc(O)c2c1CC1CC3[C@@H](N(C)C)C(=O)C(C(N)=O)C(=O)[C@]3(O)C(=O)C1C2=O (stereo partly specified) | 1.93 µM | 3.99 µM
COc1ccc(C)c2sc(N(CCN(C)C)C(=O)/C=C/c3cccs3)nc12 | 30.6 µM | 36.1 µM
CCCCCn1c(=O)c2ccccc2n2c(CCl)nnc12 | 1.36 µM | 6.07 µM
CCCc1ccc(C2=Nn3c(nnc3C(C)C)SC2)cc1 | 29.6 µM | 51.1 µM
CON(C)c1nc(C2CCCCC2)c2cc(C)ccc2n1 | 57.4 µM | 68.2 µM
COc1ccc(C2CC2/C(C)=N/OC(=O)c2ccc(F)cc2)cc1 (stereo unspecified) | 25.3 µM | 52.2 µM

From PubChem BioAssay AID449764 (Southern Research Specialized Biocontainment Screening …, 2010)
